Assay results: ChEMBL document CHEMBL4483862, “Open-source discovery of chemical leads for next-generation chemoprotective antimalarials” (2018)
pIC50: −log10 of the molar value.

System: Plasmodium berghei
Experiment: Luciferase/luciferin-expressing antifolate-resistant parasites were used to infect a culture of HepG2 cells that were pre-incubated with compounds. Infected hepatocytes emit light due to the luciferase reaction. Assay results are presented as the percent inhibition of light emission compared to control. […]
Assay type: functional
Settings: sporozoite; for IC90: read-out: LUCIFERASE INFECTION ASSAY - IC90
[1] = read-out: LUCIFERASE INFECTION ASSAY - IC50
[2] = PBLUC_HILL_SLOPE 3, PBLUC_R_SQUARED 0.854, read-out: LUCIFERASE INFECTION ASSAY - IC50

Row | Structure (SMILES) | IC90 [µM] | pIC50 [1] | also measured
1 | COc1ccc(-c2cnc3cnc(-c4ccc(CO)cc4)cn23)cc1 | 9.11 |  | pIC50 (PBLUC_HILL_SLOPE 11.2, PBLUC_R_SQUARED 0.457, read-out: LUCIFERASE INFECTION ASSAY - IC50): 5.13
2 | CCOc1cc(N2CCOCC2)c(OCC)cc1NC(=O)COc1ccc(-c2nnco2)cc1 | > 10 | < 5.00 | 
3 | Oc1cccc(-c2cnc3cnc(-c4ccccc4)cn23)c1 | > 11.5 |  | pIC50 (HEPG2TOX_HILL_SLOPE 7.12, HEPG2TOX_R_SQUARED 0.466, PBLUC_HILL_SLOPE 2.24, PBLUC_R_SQUARED 0.572, read-out: LUCIFERASE INFECTION ASSAY - IC50): 5.13
4 | O=C(c1cnc2cc3c(cc2c1)OCCCO3)c1cc(F)ccc1O | 3.65 | 5.51 | 
5 | Cc1ccc(NC(=O)c2snnc2C)cc1Cl | > 12.3 |  | pIC50 (HEPG2TOX_HILL_SLOPE 16.5, HEPG2TOX_R_SQUARED 0.725, read-out: LUCIFERASE INFECTION ASSAY - IC50): < 4.91
6 | O=C(CC12CC3CC(CC(C3)C1)C2)Nc1ccc(C(F)(F)F)cc1 | > 9.78 | < 5.01 | 
7 | S=c1n(CN2CCN(c3ccccc3Cl)CC2)nc(-c2cccs2)n1Cc1ccccc1 | 0.362 |  | pIC50 [2]: 6.76
8 | N=C(NS(=O)(=O)c1cc(C(F)(F)F)cc(C(F)(F)F)c1)c1ccc(Cl)cc1 | > 7.66 |  | pIC50 (HEPG2TOX_HILL_SLOPE 0.0636, HEPG2TOX_R_SQUARED 0.0519, read-out: LUCIFERASE INFECTION ASSAY - IC50): < 5.12
9 | Cc1ccc(Cn2cc(/C=C/C(=O)Nc3ccn(C)n3)c(-c3ccccc3)n2)cc1 | 5.35 |  | pIC50 (PBLUC_HILL_SLOPE 23.0, 1.63, PBLUC_R_SQUARED 0.221, 0.716, read-out: LUCIFERASE INFECTION ASSAY - IC50): 5.27
10 | Fc1ccc(C(Nc2ncnc3ccsc23)c2cccs2)cc1 (stereo not given) | 6.3 |  | pIC50 (HEPG2TOX_HILL_SLOPE 16.1, HEPG2TOX_R_SQUARED 0.824, PBLUC_HILL_SLOPE 385, PBLUC_R_SQUARED 0.0246, read-out: LUCIFERASE INFECTION ASSAY - IC50): 5.20
11 | COc1cc(/C=C(\C#N)c2ccc(C)cc2)cc(OC)c1OC | 4.54 |  | pIC50 (HEPG2TOX_HILL_SLOPE 1.64, HEPG2TOX_R_SQUARED 0.962, PBLUC_HILL_SLOPE 4.59, PBLUC_R_SQUARED 0.528, read-out: LUCIFERASE INFECTION ASSAY - IC50): 5.55
12 | Cc1cc(NC(=O)c2ccc(CSCc3c(Cl)cccc3Cl)cc2)no1 | 1.31 |  | pIC50 (FFLUC_HILL_SLOPE 28.8, FFLUC_R_SQUARED 0.69, PBLUC_HILL_SLOPE 8.08, PBLUC_R_SQUARED 0.529, read-out: LUCIFERASE INFECTION ASSAY - IC50): 6.00
13 | CCc1nnc(NC(=O)CCSCc2cn3ccccc3n2)s1 | > 10 | < 5.00 | 
14 | CC(C#N)Sc1nc(Nc2ccccc2)c2ccccc2n1 (stereo not given) | > 10 | < 5.00 | 
15 | Cc1noc(C)c1C(=O)OCC(=O)c1cc(C)n(-c2ccccc2F)c1C | > 10 |  | pIC50 (PBLUC_HILL_SLOPE 1.73, PBLUC_R_SQUARED 0.622, read-out: LUCIFERASE INFECTION ASSAY - IC50): 5.38
16 | Clc1ccc(C2=NN=C/C2=N\Nc2ccccc2)cc1 | > 11.7 |  | pIC50 (FFLUC_HILL_SLOPE 24, FFLUC_R_SQUARED 0.142, HEPG2TOX_HILL_SLOPE 12.3, HEPG2TOX_R_SQUARED 0.867, PBLUC_HILL_SLOPE 2.49, PBLUC_R_SQUARED 0.792, read-out: LUCIFERASE INFECTION ASSAY - IC50): 5.26
17 | c1ccc(CNCc2cn(-c3ccccc3)nc2-c2ccncc2)cc1 | > 8.76 |  | pIC50 (PBLUC_HILL_SLOPE 0.853, PBLUC_R_SQUARED 0.208, read-out: LUCIFERASE INFECTION ASSAY - IC50): < 5.06
18 | NC(=S)CCOC1CCN(Cc2ccccc2)CC1 | > 11.9 | < 4.92 | 
19 | Cc1c(-c2nc3ccccc3[nH]2)c(NC(=O)C(C)C)n(Cc2ccccc2)c1C | 5.02 |  | pIC50 (FFLUC_HILL_SLOPE 4.87, FFLUC_R_SQUARED 0.116, PBLUC_HILL_SLOPE 2.35, PBLUC_R_SQUARED 0.356, read-out: LUCIFERASE INFECTION ASSAY - IC50): 5.71
20 | COc1cc(NC(=O)COC(=O)CNC(=O)C2CCCCC2)cc(OC)c1 | > 10 | < 5.00 | 
21 | COc1ccc(S(=O)(=O)Nc2ccccc2Sc2ncnc3scc(C)c23)cc1 | > 7.44 | < 5.13 | 
22 | Cc1ccc(S(=O)(=O)NN=c2nc[nH]c3sccc23)cc1 | 5.7 | 5.59 | 
23 | Cc1cc(C(=O)Cn2c(Cl)nc3c2c(=O)n(C)c(=O)n3C)c(C)n1-c1ccc2c(c1)OCCO2 | > 10 |  | pIC50 (HEPG2TOX_HILL_SLOPE 4.07, HEPG2TOX_R_SQUARED 0.354, PBLUC_HILL_SLOPE 24.1, PBLUC_R_SQUARED 0.351, read-out: LUCIFERASE INFECTION ASSAY - IC50): 5.01

Row | Structure (SMILES) | IC90 [µM] | pIC50 [1] | also measured
24 | COc1cccc2cc(/C=C/c3nc4ccccc4s3)oc12 | 4.1 |  | pIC50 (PBLUC_HILL_SLOPE 8.93, PBLUC_R_SQUARED 0.0906, read-out: LUCIFERASE INFECTION ASSAY - IC50): 5.49
25 | O=C(N/N=C/c1ccc(O)cc1O)c1ccc[n+]([O-])c1 | 0.362 |  | pIC50 [2]: 6.76
26 | COc1ccccc1N1CCN(c2oc(-c3ccccc3Cl)nc2S(=O)(=O)c2ccc(C)cc2)CC1 | > 10 |  | pIC50 (PBLUC_HILL_SLOPE 1.06, PBLUC_R_SQUARED 0.3, read-out: LUCIFERASE INFECTION ASSAY - IC50): < 5.00
27 | O=C(c1ccc(S(=O)(=O)C(F)(F)F)cc1)N1CCN(Cc2csc(-c3ccccc3)n2)CC1 | 4.21 |  | pIC50 (HEPG2TOX_HILL_SLOPE 2.26, HEPG2TOX_R_SQUARED 0.817, PBLUC_HILL_SLOPE 12.1, PBLUC_R_SQUARED 0.456, read-out: LUCIFERASE INFECTION ASSAY - IC50): 5.45
28 | Cc1ccc(C)c(Sc2ccc(NC(=O)CN3C(=O)NC(Cc4ccccc4)C3=O)cc2)c1 (stereo not given) | > 10 |  | pIC50 (PBLUC_HILL_SLOPE 1.97, PBLUC_R_SQUARED 0.872, read-out: LUCIFERASE INFECTION ASSAY - IC50): 5.23
29 | CCCOc1c(Cl)cc(C(=O)N2CCN(c3cccc(C)c3C)CC2)cc1OC | > 10 |  | pIC50 (HEPG2TOX_HILL_SLOPE 9.26, HEPG2TOX_R_SQUARED 0.489, PBLUC_HILL_SLOPE 10.9, 0.598, PBLUC_R_SQUARED 0.349, 0.728, read-out: LUCIFERASE INFECTION ASSAY - IC50): 5.50
30 | CCC(Sc1nnc(-c2ccccc2F)[nH]1)C(=O)Nc1ccccc1 (stereo not given) | > 10 | < 5.00 | 
31 | C/N=c1\scc(-c2ccco2)n1/N=C/c1sccc1C | 1.19 |  | pIC50 (FFLUC_HILL_SLOPE 0.471, FFLUC_R_SQUARED 0.601, PBLUC_HILL_SLOPE 1.29, PBLUC_R_SQUARED 0.771, read-out: LUCIFERASE INFECTION ASSAY - IC50): 6.67
32 | COc1ccc(NC(=O)c2cccc(C3(CNCc4ccc(F)c(F)c4)CC3)c2)cn1 | > 10 |  | pIC50 (PBLUC_HILL_SLOPE 17.1, PBLUC_R_SQUARED 0.0793, read-out: LUCIFERASE INFECTION ASSAY - IC50): 5.00
33 | COC(=O)c1c(NC(C)=O)c2cc(NC(C)Cc3ccccc3F)cnc2n1CCC(C)C (stereo not given) | > 7.26 | < 5.14 | 
34 | Cc1cc(OCC(=O)NC(C)c2ccc(-n3cncn3)cc2)no1 (stereo not given) | > 10 | < 5.00 | 
35 | Cc1csc(=O)n1CC(=O)Nc1cccc2ccccc12 | > 10 | < 5.00 | 
36 | COc1ccc(Nc2nc(CN3CCN(Cc4ccc(C#N)cc4)CC3)cs2)cc1 | > 10 | < 5.00 | 
37 | O=C1C(=O)N(CN2CCc3sccc3C2c2ccccc2)c2ccc(F)cc21 (stereo not given) | 2.51 |  | pIC50 (HEPG2TOX_HILL_SLOPE 2.62, HEPG2TOX_R_SQUARED 0.103, PBLUC_HILL_SLOPE 2.21, PBLUC_R_SQUARED 0.632, read-out: LUCIFERASE INFECTION ASSAY - IC50): 6.03
38 | COc1ccc(-c2cncc(-c3ccc(O)c(OC)c3)n2)cc1 | 0.463 |  | pIC50 (HEPG2TOX_HILL_SLOPE 11.5, HEPG2TOX_R_SQUARED 0.964, PBLUC_HILL_SLOPE 4.2, PBLUC_R_SQUARED 0.828, read-out: LUCIFERASE INFECTION ASSAY - IC50): 6.56
39 | Cn1ccnc1/C(=N\NC(=O)c1sc2ccccc2c1Cl)c1cccc([N+](=O)[O-])c1 | > 10 | < 5.00 | 
40 | CC1(C)CC(CCNCc2ccc(F)cc2)(Cc2ccccc2)CCO1 (stereo not given) | 4.13 |  | pIC50 (HEPG2TOX_HILL_SLOPE 551, HEPG2TOX_R_SQUARED 0.482, PBLUC_HILL_SLOPE 3.65, PBLUC_R_SQUARED 0.507, read-out: LUCIFERASE INFECTION ASSAY - IC50): 5.65
41 | C/N=c1\scc(-c2ccc(OC(F)F)cc2)n1/N=C/c1ccccc1[N+](=O)[O-] | > 10 | < 5.00 | 
42 | CCCCCc1c(C(=O)OCC)[nH]c(C)c1C | > 13.9 |  | pIC50 (HEPG2TOX_HILL_SLOPE 1.75, HEPG2TOX_R_SQUARED 0.784, PBLUC_HILL_SLOPE 1.37, PBLUC_R_SQUARED 0.743, read-out: LUCIFERASE INFECTION ASSAY - IC50): 5.26
43 | COCCCN1C(=O)N(Cc2ccccc2)C(=O)C12CCN(CCC(C)c1ccc(C)o1)CC2 (stereo not given) | > 7.06 |  | pIC50 (PBLUC_HILL_SLOPE 7.49, PBLUC_R_SQUARED 0.22, read-out: LUCIFERASE INFECTION ASSAY - IC50): 5.20
44 | Cc1ccc(S(=O)(=O)Nc2cccc3ncccc23)s1 | 3.72 |  | pIC50 (HEPG2TOX_HILL_SLOPE 1.87, HEPG2TOX_R_SQUARED 0.954, PBLUC_HILL_SLOPE 8.9, PBLUC_R_SQUARED 0.583, read-out: LUCIFERASE INFECTION ASSAY - IC50): 5.54
45 | CC(C)(C(=O)NCCc1ccccc1)n1cc(-c2ccc3c(c2)OCCO3)cn1 | > 10 | < 5.00 | 
